Where a name gives a salt, the structure may show the parent alone.
Experiments:
hK14mIL33tg mice [1] = experiment: Scratching behavior (skin scratching time) in hK14mIL33tg mice; type: in vivo, mouse
Description: Skin scratching time (sec/min) in any 20 min of wild-type mice (WT) and hK14mIL33tg mice (Tg) was measured. […] Furthermore, an effect of anti-histamine drugs on the scratching behavior was verified. Diphenhydramine hydrochloride (2 mg) was intraperitoneally administered to hK14mIL33tg mice. As a result, the scratching time of mice observed in 20 min from 6 min after the administration decreased from average 4.6 min to average 0.2 min (FIG. 19).

hK14mIL33tg mice [2] = experiment: Rash score of hK14mIL33tg mice after application to rash site; type: in vivo, mouse
Description: Each item can be measured by a known method, or according to the below-mentioned Examples. For example, as for the rash score, 5 items of pruritus, erythematous plaque/bleeding, edema, epidermis detachment/erosion, and desquamation/drying are evaluated and rated as absent (0 point), mild (1 point), moderate (2 points), and severe (3 points), and the total points are used for measurement (Matsuda H et al., Int. Immunol, 9(3):461-466, 1997). As for the number of inflammatory cells, for example, cells derived from skin tissue, peripheral blood or lymph node are analyzed by flow cytometry, and the ratio thereof can be measured. The inflammatory cells include eosinophils, neutrophils, basophils, mast cells, type 2 innate lymphoid cells and the like, preferably eosinophils, mast cells and type 2 innate lymphoid cells. The total IgE concentration, histamine concentration, cytokine concentration and chemokine concentration can be measured by ELISA using each antibody. As used herein, cytokine is preferably IL-5 or IL-13. […]
An effect of steroid drug on scratching behavior of hK14mIL33tg mice was verified. […] As rash scores, 5 items of pruritus, erythematous plaque/bleeding, edema, epidermis detach/erosion, and desquamation/drying were evaluated into absent (0 point), mild (1 point), moderate (2 points), and severe (3 points) (Matsuda H et al., Int. Immunol, 9(3):461-466, 1997). […]

Row | Structure (SMILES) | scratching time after administration (hK14mIL33tg mice [1]; 2 mg intraperitoneally, observed in 20 min from 6 min after the administration, average, n=3, before administration average 4.6 min) [min] | scratching time (result in words) (hK14mIL33tg mice [1]; hK14mIL33tg (Tg) mice, increased scratching time vs wild-type) | total points of rash score after application (hK14mIL33tg mice [2]; applied to rash site 5 times every 2 days, average, n=4, before application average 12.3 points, 5 items scored 0-3) [points] | rash score (result in words) (hK14mIL33tg mice [2]; hK14mIL33tg (Tg) mice)
1 | CN(C)CCOC(c1ccccc1)c1ccccc1 [Diphenhydramine hydrochloride] | 0.2 | could reduce | – | –
2 | CCCC(=O)O[C@]1(C(=O)COC(=O)CC)[C@@H](C)C[C@H]2[C@@H]3CCC4=CC(=O)C=C[C@]4(C)[C@@]3(F)[C@@H](O)C[C@@]21C [betamethasone butyrate propionate] | – | – | 4.8 | could reduce

Source: patent US9949465B2, “Atopic dermatitis model animal and use thereof” (HYOGO COLLEGE OF MEDICINE, priority 2013, dated 2018)
